How the values were obtained:
Mus musculus [1] = assay: Antidiabetic activity in C57BL/KsJ mouse assessed as maximum reduction in blood glucose level at 200 mg/kg, po administered for 9 days by spectrometric method relative to control; assay type: functional; set-up: scale not given: the % may be the effect or the level left
[2] = biological target: T1, NAD-dependent protein deacetylase sirtuin-1 (Homo sapiens) (UniProt Q96EB6); assay: Modulation of SIRT1 (unknown origin) expressed in Escherichia coli BL21(DE3) cells using Ac-EE-K(biotin)-GQSTSSHSK(Ac)NleSTEG-K(5TMR)-EE-NH2 as substrate after 25 mins by mass spectrometry
T1 sequence (whole entry): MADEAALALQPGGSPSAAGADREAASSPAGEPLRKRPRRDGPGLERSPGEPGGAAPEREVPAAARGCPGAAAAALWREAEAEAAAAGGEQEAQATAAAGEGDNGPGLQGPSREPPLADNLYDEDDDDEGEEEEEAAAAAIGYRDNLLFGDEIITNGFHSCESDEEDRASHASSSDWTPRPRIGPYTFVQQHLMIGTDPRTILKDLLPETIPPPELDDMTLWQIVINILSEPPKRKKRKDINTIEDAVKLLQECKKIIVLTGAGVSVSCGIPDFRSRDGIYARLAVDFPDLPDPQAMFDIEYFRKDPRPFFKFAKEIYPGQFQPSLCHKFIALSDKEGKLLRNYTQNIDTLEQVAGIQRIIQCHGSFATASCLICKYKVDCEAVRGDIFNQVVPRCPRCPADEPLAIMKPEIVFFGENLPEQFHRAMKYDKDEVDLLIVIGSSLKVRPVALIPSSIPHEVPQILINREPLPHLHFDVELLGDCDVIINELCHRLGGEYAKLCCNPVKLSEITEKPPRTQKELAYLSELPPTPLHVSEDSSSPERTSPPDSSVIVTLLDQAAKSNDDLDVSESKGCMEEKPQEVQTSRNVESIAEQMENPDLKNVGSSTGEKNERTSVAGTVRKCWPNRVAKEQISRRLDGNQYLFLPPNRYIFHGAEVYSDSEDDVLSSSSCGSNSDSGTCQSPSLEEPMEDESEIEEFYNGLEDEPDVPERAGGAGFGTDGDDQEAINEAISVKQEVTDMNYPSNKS

[3] = biological target: Cystic fibrosis transmembrane conductance regulator (Homo sapiens, UniProt P13569, F508DEL/H148Q/I152L); assay: Inhibition of human CFTR F508 deletion mutant expressed in rat FRT cells coexpressing YFP-H148Q/I152L 25,22 incubated for 60 to 120 mins in presence of forskolin by fluorescent method; assay type: cell-based
MCF7 = assay: Cytotoxicity against human MCF7 cells; assay type: functional; conditions: read-out: LC50 (the source's name)
HepG2 [4] = assay: cells; conditions: Homo sapiens, HepG2, 24 h
Description: Cytotoxicity against human HepG2 cells after 24 hrs by MTT assay

PC-3 = assay: Cytotoxicity against human PC3 cells after 24 hrs by MTT assay; assay type: functional, cell-based; conditions: PC-3, 24 h
[5] = Inhibition of human HeLa cell derived PARP preincubated for 10 mins followed by NAD and double stranded DNA-oligos addition and measured after 45 mins by scintillation counting; assay type: cell-based
[6] = biological target: Poly [ADP-ribose] polymerase 1 (Homo sapiens, UniProt P09874); assay: Inhibition of human PARP1 expressed in Escherichia coli incubated for 15 to 40 mins by ELISA
[7] = Inhibition of PARP in human C41 cells assessed as reduction in protein accumulation preincubated for 30 mins followed by H2O2 addition and measured after 10 mins by FITC/DAPI-staining based fluorescence method; assay type: cell-based
[8] = Inhibition of recombinant human PARP expressed in Escherichia coli in presence of NAD+ by microplate scintillation counting method
HCT-116 = assay: Antiproliferative activity against human HCT116 cells after 5 days by CellTiter-Glo Luminescent Cell Viability Assay; assay type: functional, cell-based; conditions: HCT-116, 120 h
Aurora kinase A = biological target: T2, Aurora kinase A (Homo sapiens, UniProt O14965); assay: Inhibition of C-terminal His4-tagged Aurora A (unknown origin) using PKB-GSK2 biotinylated peptide as substrate incubated for 90 mins by ELISA
T2 sequence (O14965 whole entry): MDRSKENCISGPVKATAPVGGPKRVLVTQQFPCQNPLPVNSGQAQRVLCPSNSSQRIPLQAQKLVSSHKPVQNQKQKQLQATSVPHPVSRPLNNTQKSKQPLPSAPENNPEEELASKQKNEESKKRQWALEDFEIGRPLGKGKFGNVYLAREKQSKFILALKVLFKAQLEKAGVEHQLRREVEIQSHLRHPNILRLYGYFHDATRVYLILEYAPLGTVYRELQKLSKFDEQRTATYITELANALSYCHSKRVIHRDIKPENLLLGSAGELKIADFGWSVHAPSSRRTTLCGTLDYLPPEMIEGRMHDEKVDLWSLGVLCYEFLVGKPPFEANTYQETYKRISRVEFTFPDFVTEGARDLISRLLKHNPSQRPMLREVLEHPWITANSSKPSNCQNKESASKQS

[9] = biological target: Aldo-keto reductase family 1 member B1 (Homo sapiens, UniProt P15121); assay: Inhibition of human Aldose reductase
MDA-MB-468 = assay: Growth inhibition of human MDA-MB-468 cells after 7 days by CCK-8 method; assay type: functional, cell-based; conditions: MDA-MB-468, 168 h
CAPAN-1 = assay: Growth inhibition of human Capan1 cells after 7 days by CCK-8 method; assay type: functional, cell-based; conditions: CAPAN-1, 168 h
Mus musculus [10] = organism: Mus musculus; assay: animal or person; conditions: ICR, ip
Description: Anticonvulsant activity in ip dosed ICR mouse assessed as protection against 50 mA current-induced seizure pretreated for 30 mins followed by seizure induction measured for 60 mins by maximal electroshock seizure test

HUVEC = assay: Induction of HUVEC proliferation incubated for 20 hrs followed by 3H thymidine incorporation and measured after 4 hrs by beta counting method; assay type: functional, cell-based; conditions: Homo sapiens
[11] = Induction of mouse primary oligodendrocytes incubated for 16 to 24 hrs by WSTl reagent based assay; assay type: functional
Mus musculus [12] = assay: Antinociceptive activity in Balb/c mouse at 20 mg/kg, ip after 120 mins by tail flick test relative to control; assay type: functional
HepG2 [13] = assay: Cytotoxicity against human HepG2 cells incubated for 48 hrs by sulforhodamine B staining based ELISA; assay type: functional, cell-based; conditions: HepG2, 48 h
Ehrlich = assay: Antitumor activity against mouse EAC cells implanted in Swiss albino mouse assessed as reduction in tumor growth at 5 mg/kg, ip dosed daily starting 6 days after inoculation; assay type: functional, organism-based; conditions: 144 h
Mus musculus [14] = assay: Antinociceptive activity in Balb/c mouse at 20 mg/kg, ip after 180 mins by tail flick test relative to control; assay type: functional

Sequence of Poly [ADP-ribose] polymerase 1 (P09874 whole entry): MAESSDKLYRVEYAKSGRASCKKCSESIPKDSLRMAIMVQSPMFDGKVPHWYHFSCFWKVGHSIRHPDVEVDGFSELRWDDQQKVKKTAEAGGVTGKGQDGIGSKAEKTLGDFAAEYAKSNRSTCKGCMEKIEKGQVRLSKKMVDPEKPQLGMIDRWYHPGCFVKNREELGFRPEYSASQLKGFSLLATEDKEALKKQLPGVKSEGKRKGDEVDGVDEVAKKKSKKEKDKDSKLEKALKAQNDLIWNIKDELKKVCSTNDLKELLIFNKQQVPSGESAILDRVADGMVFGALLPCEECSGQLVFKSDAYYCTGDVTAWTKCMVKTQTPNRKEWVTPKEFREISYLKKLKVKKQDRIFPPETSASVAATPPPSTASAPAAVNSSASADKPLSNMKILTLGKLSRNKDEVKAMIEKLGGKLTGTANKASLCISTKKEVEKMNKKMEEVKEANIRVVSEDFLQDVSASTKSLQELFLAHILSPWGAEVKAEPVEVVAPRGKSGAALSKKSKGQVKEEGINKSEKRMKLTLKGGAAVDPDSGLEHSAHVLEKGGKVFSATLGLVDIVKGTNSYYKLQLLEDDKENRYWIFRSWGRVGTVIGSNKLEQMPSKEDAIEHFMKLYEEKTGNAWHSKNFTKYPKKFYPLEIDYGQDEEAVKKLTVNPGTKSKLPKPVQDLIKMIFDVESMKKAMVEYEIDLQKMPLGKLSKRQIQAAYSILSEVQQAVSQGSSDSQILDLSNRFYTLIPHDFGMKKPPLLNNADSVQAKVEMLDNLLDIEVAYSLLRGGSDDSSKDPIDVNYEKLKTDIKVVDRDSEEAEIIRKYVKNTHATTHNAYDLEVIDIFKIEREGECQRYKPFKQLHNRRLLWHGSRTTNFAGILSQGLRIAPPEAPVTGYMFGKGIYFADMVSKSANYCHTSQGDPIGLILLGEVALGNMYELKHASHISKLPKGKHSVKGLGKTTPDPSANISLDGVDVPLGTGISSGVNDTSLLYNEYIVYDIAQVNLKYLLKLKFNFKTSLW
Sequence of Cystic fibrosis transmembrane conductance regulator (P13569 whole entry, looked up, stated change not applied): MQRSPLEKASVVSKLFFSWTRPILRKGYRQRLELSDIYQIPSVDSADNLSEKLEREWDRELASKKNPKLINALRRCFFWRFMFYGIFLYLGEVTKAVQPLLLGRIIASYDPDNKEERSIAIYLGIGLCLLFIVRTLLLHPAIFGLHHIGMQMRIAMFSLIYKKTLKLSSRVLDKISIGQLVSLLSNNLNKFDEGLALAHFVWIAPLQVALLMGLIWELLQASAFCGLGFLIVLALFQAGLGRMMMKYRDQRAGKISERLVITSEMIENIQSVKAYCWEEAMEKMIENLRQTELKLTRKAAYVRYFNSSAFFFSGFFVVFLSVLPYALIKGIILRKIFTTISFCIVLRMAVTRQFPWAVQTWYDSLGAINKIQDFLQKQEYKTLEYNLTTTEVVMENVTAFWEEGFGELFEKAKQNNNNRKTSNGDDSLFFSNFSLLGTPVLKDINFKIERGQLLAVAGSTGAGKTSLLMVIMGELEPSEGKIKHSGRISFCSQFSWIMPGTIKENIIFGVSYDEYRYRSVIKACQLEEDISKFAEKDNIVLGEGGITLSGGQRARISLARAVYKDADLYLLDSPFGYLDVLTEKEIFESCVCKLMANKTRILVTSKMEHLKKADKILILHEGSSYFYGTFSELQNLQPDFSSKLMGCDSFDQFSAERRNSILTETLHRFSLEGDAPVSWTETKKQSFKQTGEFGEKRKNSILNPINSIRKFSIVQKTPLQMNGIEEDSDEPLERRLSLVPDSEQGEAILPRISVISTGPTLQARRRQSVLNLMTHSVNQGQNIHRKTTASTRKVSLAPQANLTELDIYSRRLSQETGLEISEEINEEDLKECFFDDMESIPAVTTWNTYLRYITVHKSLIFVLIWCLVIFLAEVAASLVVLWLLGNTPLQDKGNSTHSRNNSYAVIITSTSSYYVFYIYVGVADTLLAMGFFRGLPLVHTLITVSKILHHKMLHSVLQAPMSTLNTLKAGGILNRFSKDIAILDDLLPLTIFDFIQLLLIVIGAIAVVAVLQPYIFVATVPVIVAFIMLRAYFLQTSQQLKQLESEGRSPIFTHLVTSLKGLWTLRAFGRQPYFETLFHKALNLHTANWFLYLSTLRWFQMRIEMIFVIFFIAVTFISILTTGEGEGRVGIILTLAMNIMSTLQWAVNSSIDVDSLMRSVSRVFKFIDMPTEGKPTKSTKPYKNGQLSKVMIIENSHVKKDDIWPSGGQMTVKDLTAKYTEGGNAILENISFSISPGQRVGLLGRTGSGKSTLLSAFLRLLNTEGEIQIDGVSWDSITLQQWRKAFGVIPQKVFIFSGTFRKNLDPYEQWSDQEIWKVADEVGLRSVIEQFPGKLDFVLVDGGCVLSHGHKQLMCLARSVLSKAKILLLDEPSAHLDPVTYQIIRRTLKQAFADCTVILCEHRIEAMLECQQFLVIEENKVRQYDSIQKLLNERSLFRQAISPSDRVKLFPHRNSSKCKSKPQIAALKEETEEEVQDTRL

For `Cc1nn(CCOc2ccc(CC3SC(=O)NC3=O)cc2)c(=O)c2ccccc12` (stereo unspecified), the Activity (Mus musculus [1]) was “<=61%”.

Work on `O=C(Nc1cccc2cnn(-c3cccc(C(F)(F)F)c3)c(=O)c12)c1cnccn1` yielded an EC1.5 [2] of under 5 µM.

`Cc1nc2ccc(N(C)C(=O)Cn3nc(-c4cccc(Cl)c4)c4ccccc4c3=O)cc2o1` showed an EC50 [3] of under 10000 nM.

In the case of `CC(S)C[C@H](NC(=O)Cn1ncc2ccccc2c1=O)C(N)=O` (stereo partly specified), the CC50 (MCF7) is reported as 20300 nM.

With `O=C(Cn1nc(Cc2ccccc2)c2ccccc2c1=O)NNS(=O)(=O)c1ccccc1` the IC50 (HepG2 [4]) was 17400 nM and the IC50 (PC-3) was 19800 nM.

`O=c1[nH]cc(F)c(=O)[nH]1` [FLUOROURACIL] gave an IC50 (PC-3) of 63800 nM.

For `O=C(Nc1cccc2cnn(-c3cccc(OC(F)(F)F)c3)c(=O)c12)c1cccc(CN2CCOCC2)n1`, the EC1.5 [2] was under 5 µM.

Work on `CC1C(=O)N(c2cccc(Cc3n[nH]c(=O)c4ccccc34)c2)C(=O)N1CCN1CCCCC1` (stereo unspecified) yielded an IC50 [5] of 2.8 nM.

For `O=C(Nc1ccc(-c2cccc(Cc3n[nH]c(=O)c4ccccc34)c2)cc1)C1CC1`, the IC50 [5] was 57 nM.

`O=C(c1cc(Cc2n[nH]c(=O)c3ccccc23)cc2c1OCC2)N1CCn2c(nnc2C(F)(F)F)C1` showed an IC50 [6] of 1.7 nM.

`O=C(c1cc(Cc2n[nH]c(=O)c3ccccc23)ccc1F)N1CCN(c2ncccn2)CC1` showed an EC50 [7] of 0.7 nM and an IC50 [8] of 0.7 nM.

`Cc1cc(Nc2nn(C(C)C)c(=O)c3cc(OCCN4CCOCC4)ccc23)n[nH]1` gave an IC50 (HCT-116) of 7 nM and an IC50 (Aurora kinase A) of 420 nM.

Compound `O=C(O)Cc1nn(Cc2cc(F)cc(Br)c2)c(=O)c2ccccc12` has an IC50 [9] of 20 nM.

Compound `O=C(c1cc(Cc2n[nH]c(=O)c3ccccc23)ccc1F)N1CCn2c(nnc2C(F)F)C1` has an IC50 (MDA-MB-468) of 0.003 nM and an IC50 (CAPAN-1) of 0.003 nM.

`CCOC(=O)CSc1nnc(Cn2[nH]c(=O)c3ccccc3c2=O)o1` showed an ED50 (Mus musculus [10]) of 193 µmol/kg.

Compound `O=C(Nc1cccc2cnn(-c3cccc(C(F)(F)F)c3)c(=O)c12)c1cccc(CN2CCOCC2)n1` has an EC1.5 [2] of under 5 µM.

In the case of `O=C(c1cc(Cc2n[nH]c(=O)c3ccccc23)ccc1F)N1CC2C(=O)N(Cc3ccccc3)C(=O)C2C1` (stereo unspecified), the IC50 [6] is reported as 0.5 nM.

With `O=c1[nH]nc(-c2ccc(N3CCCCCC3)c([N+](=O)[O-])c2)c2ccccc12` the EC50 (HUVEC) was 2500 nM and the EC50 [11] was 200 nM.

Work on `CN(C)CCn1nc(-c2ccccc2)c2ccccc2c1=O` yielded an MPE (Mus musculus [12]) of 39.61%.

With `CC1NC(=O)N(c2cccc(Cc3n[nH]c(=O)c4ccccc34)c2)C1=O` (stereo unspecified) the IC50 [5] was 5 nM.

With `Cc1c(CC(=O)O)nn(Cc2nc3cc(C(F)(F)F)ccc3s2)c(=O)c1C` the IC50 [9] was 10 to 16 nM.

`O=C(Cn1nc(Cc2ccccc2)c2ccccc2c1=O)NNC(=S)Nc1ccccc1` showed an IC50 (HepG2 [13]) of 10 nM and an IC50 (Ehrlich) of 20 nM.

Work on `CN(C)CCn1nc(-c2ccncc2)c2ccccc2c1=O` yielded an MPE (Mus musculus [14]) of 18.26% and an MPE (Mus musculus [12]) of 14.84%.

`CC(=O)CNC(=O)Cn1nc(Cc2ccccc2)c2ccccc2c1=O` showed an IC50 (HepG2 [13]) of 10 nM.

Source: ChEMBL document CHEMBL4354803, “Synthesis and biological activity of structurally diverse phthalazine derivatives: A systematic review” (Bioorg Med Chem, 2019)
